System: rabbit ventricular myocytes
Assay: [Na^+]i in paced myocytes exposed to ATX, no metabolic inhibition
Format: cell-based
Conditions: FIG. 9
Method: In these studies, intracellular calcium concentration [Ca^++]i was measured by flow cytometry. Measurement of isolated mouse and rabbit ventricular myocyte [Ca^2+]i and [Na^+]i by flow cytometry has been described (Zhang et al., J. Cardiovasc. Pharmacol. 51: 443-449 (2008); Li et al., J. Mol. Cell. Cardiol. 33: 2145-2155 (2001)). [Ca^++]i was measured with the Ca^++ sensitive fluorescent probe, Fluo 3-AM (Molecular Probes, Eugene, Oreg.), using a FACScan (Becton-Dickinson, MA). The cells were exposed to 4 μmol/L Fluo-3 AM for 30 min at 37° C. The cells were then separated into aliquots. […] Metabolic ischemia was accomplished by incubating cells in a glucose-free MKRBB solution (pH 7.40) containing 2 mmol/L sodium cyanide (NaCN) to impair mitochondrial and glycolytic generation of ATP. To reproduce the situation in the beating ischemic heart, during the period of metabolic ischemia, myocytes were placed in a 5-well chamber with equal volumes of myocyte suspensions from the same heart dissociation placed in each well. The chamber was water bathed to maintain temperature at 37° C. and bubbled with 5% CO2 in air to keep myocytes in suspension. Each well was fitted with platinum sheet electrodes on both sides for field stimulation. One chamber was constructed with a glass coverslip bottom so that myocytes can be observed microscopically to assess capture threshold. Placing electrodes were connected in series to a constant current pulse generator that delivers a 0.2 ampere pulse at 0.5 Hz. […] Approximately 2×10^3 myocytes were analyzed to calculate average emission fluorescence intensity in each sample. […] Only those cells with low fluorescence intensity at 670 nm (PI-negative cells or viable cells) were included in the comparative analysis of [Ca^++]i. The sample [Ca^2+]i values were calculated by Mn^2+ quenching (Sugishita et al, 2001) and [Na^+]i values by comparison with a standard curve of varied [Na^+]i versus Na Green fluorescence. […] Results were expressed as means±SEM. […]

## 2-O, 3-O desulfated heparin [ODSH]
ODSH 100 ug/ml with ATX 10 nM
  effect on ATX-induced increase in [Na^+]i: almost completely inhibited
ODSH 100 ug/ml, HEPES + pacing alone
  effect on [Na^+]i in the absence of ATX: reduced [Na^+]i in myocytes in the absence of ATX but to a much smaller extent
